In US10836732B2, “Compounds for combating arthropods” (priority 2013, dated 2020):

What was measured:
[1] = test system: Spodoptera frugiperda; experiment: Spodoptera frugiperda - spray test; type: in vivo; conditions: maize leaf discs, after 7 days
Procedure: (§1) Solvent: 78.0 parts by weight of acetone
(§2) • 1.5 parts by weight of dimethylformamide Emulsifier: alkylaryl polyglycol ether
(§3) To produce an appropriate active ingredient formulation, 1 part by weight of active ingredient is dissolved using the specified parts by weight of solvent and made up with water containing an emulsifier concentration of 1000 ppm until the desired concentration is attained. To produce further test concentrations, the preparation is diluted with emulsifier-containing water.
Leaf discs of maize (Zea mays) are sprayed with an active ingredient formulation of the desired concentration and, after drying, populated with caterpillars of the armyworm (Spodoptera frugiperda).
After 7 days, efficacy in % is determined. 100% means that all the caterpillars have been killed; 0% means that no caterpillars have been killed.

[2] = test system: Phaedon cochleariae; experiment: Phaedon cochleariae - spray test; type: in vivo; conditions: Chinese cabbage leaf discs, after 7 days
Procedure: as §1, §2, §3
Discs of Chinese cabbage leaves (Brassica pekinensis) are sprayed with an active ingredient formulation of the desired concentration and, after drying, populated with larvae of the mustard beetle (Phaedon cochleariae).
After 7 days, efficacy in % is determined 100% means that all the beetle larvae have been killed; 0% means that no beetle larvae have been killed.

[3] = test system: Musca domestica; experiment: Musca domestica - test; type: in vivo; conditions: 100 ppm, adult houseflies, after 2 days
Procedure: (§4) Solvent: dimethyl sulphoxide
(§5) To produce an appropriate active ingredient formulation, 10 mg of active ingredient are mixed with 0.5 ml of dimethyl sulphoxide, and the concentrate is diluted with water to the desired concentration.
Vessels containing a sponge treated with sugar solution and the active ingredient formulation of the desired concentration are populated with 10 adult houseflies (Musca domestica).
After 2 days, the kill in % is determined 100% means that all of the flies have been killed; 0% means that none of the flies have been killed.

[4] = logP by HPLC on reversed-phase column (C18), EEC Directive 79/831 Annex V.A8; type: physicochemical
[5] = test system: Lucilia cuprina; experiment: Lucilia cuprina - test; type: in vivo; conditions: 100 ppm, L1 larvae, after 2 days
Procedure: as §4, §5
About 20 L1 larvae of the Australian sheep blowfly (Lucilia cuprina) are transferred into a test vessel containing minced horsemeat and the active ingredient preparation of the desired concentration.
After 2 days, the kill in % is determined 100% means that all the larvae have been killed; 0% means that none of the larvae have been killed.

[6] = test system: Boophilus microplus; experiment: Boophilus microplus - injection test; type: in vivo; conditions: 20 μg/animal, injected into engorged adult female cattle ticks, after 7 days
Procedure: as §4
To produce an appropriate active ingredient formulation, 10 mg of active ingredient are mixed with 0.5 ml of solvent and the concentrate is diluted with solvent to the desired concentration.
1 μl of the active ingredient solution is injected into the abdomen of 5 engorged adult female cattle ticks (Boophilus microplus). The animals are transferred into dishes and kept in a climate-controlled room.
(§6) Efficacy is assessed after 7 days by laying of fertile eggs. Eggs which are not visibly fertile are stored in a climate-controlled cabinet until the larvae hatch after about 42 days. An efficacy of 100% means that none of the ticks has laid any fertile eggs; 0% means that all the eggs are fertile.

[7] = test system: Ctenocephalides felis; experiment: Ctenocephalides felis - oral test; type: in vivo; conditions: 100 ppm in citrated cattle blood, adult cat fleas, after 2 days
Procedure: as §4
For the purpose of producing an appropriate active ingredient formulation, 10 mg of active ingredient are mixed with 0.5 ml of dimethyl sulphoxide. Dilution with citrated cattle blood gives the desired concentration.
About 20 unfed adult cat fleas (Ctenocephalides felis) are placed into a chamber which is closed at the top and bottom with gauze. A metal cylinder whose bottom end is closed with parafilm is placed onto the chamber. The cylinder contains the blood/active ingredient preparation, which can be imbibed by the fleas through the parafilm membrane.
After 2 days, the kill in % is determined 100% means that all of the fleas have been killed; 0% means that none of the fleas have been killed.

[8] = test system: Myzus persicae; experiment: Myzus persicae - spray test; type: in vivo; conditions: 500 g/ha, Chinese cabbage leaf discs, after 6 days
Procedure: Solvent: 78 parts by weight of acetone
as §2, §3
Discs of Chinese cabbage leaves (Brassica pekinensis) infested by all stages of the green peach aphid (Myzus persicae) are sprayed with an active ingredient formulation of the desired concentration.
After 6 days, efficacy in % is determined. 100% means that all the aphids have been killed; 0% means that none of the aphids have been killed.

[9] = test system: Tetranychus urticae; experiment: Tetranychus urticae - spray test, OP-resistant; type: in vivo; conditions: bean leaf discs, after 6 days
Procedure: as §1, §2, §3
Discs of bean leaves (Phaseolus vulgaris) infested by all stages of the greenhouse red spider mite (Tetranychus urticae) are sprayed with an active ingredient formulation of the desired concentration.
After 6 days, efficacy in % is determined 100% means that all the spider mites have been killed; 0% means that none of the spider mites have been killed.

[10] = test system: Amblyomma hebraeum; experiment: Amblyomma hebaraeum - test (tick nymphs, immersion); type: in vivo; conditions: 100 ppm, tick nymphs immersed one minute, after 42 days
Procedure: as §4, §5
Tick nymphs (Amblyomma hebraeum) are placed into perforated plastic beakers and immersed in the desired concentration for one minute. The ticks are transferred on filter paper into a Petri dish and stored in a climate-controlled cabinet.
After 42 days, the kill in % is determined 100% means that all of the ticks have been killed; 0% means that none of the ticks have been killed.

[11] = test system: Boophilus microplus Parkhurst strain, SP-resistant; experiment: Boophilus microplus - dip test; type: in vivo; conditions: 100 ppm, adult engorged female cattle ticks, after 7 days
Procedure: Test animals: cattle ticks (Boophilus microplus) Parkhurst strain, SP-resistant
as §4
10 mg of active ingredient are dissolved in 0.5 ml of dimethyl sulphoxide. For the purpose of producing a suitable formulation, the active ingredient solution is diluted with water to the concentration desired in each case.
This active ingredient formulation is pipetted into tubes. 8-10 adult engorged female cattle ticks (Boophilus microplus) are transferred into a further tube with holes. The tube is immersed into the active ingredient formulation, and all the ticks are completely wetted. After the liquid has run out, the ticks are transferred on filter discs into plastic dishes and stored in a climate-controlled room.
as §6

[12] = test system: Rhipicephalus sanguineus; experiment: Rhipicephalus sanguineus - in vitro contact tests with adult brown dog ticks; type: in vivo; conditions: 5 μg/cm^2, adult dog ticks, after 48 h
Procedure: For the coating of the test tubes, 9 mg of active ingredient are first dissolved in 1 ml of acetone p.a. and then diluted to the desired concentration with acetone p.a. 250 μl of the solution are distributed homogeneously on the inner walls and base of a 25 ml test tube by turning and rocking on an orbital shaker (rocking rotation at 30 rpm for 2 h). With 900 ppm active ingredient solution and internal surface 44.7 cm^2, given homogeneous distribution, an area-based dose of 5 μg/cm^2 is achieved.
After the solvent has evaporated off, the tubes are populated with 5-10 adult dog ticks (Rhipicephalus sanguineus), sealed with a perforated plastic lid and incubated in a horizontal position in the dark at room temperature and ambient humidity. After 48 h, efficacy is determined To this end, the ticks are knocked to the floor of the tube and incubated on a hotplate at 45-50° C. for not more than 5 min Ticks which remain motionless on the floor or move in such an uncoordinated manner that they are unable to deliberately avoid the heat by climbing upwards are considered to be dead or moribund.
An efficacy of 100% means that all the ticks were dead or moribund. 0% efficacy means that none of the ticks had been harmed.

[13] = test system: Ctenocephalides felis; experiment: Ctenocephalides felis - in vitro contact tests with adult cat fleas; type: in vivo; conditions: 5 μg/cm^2, adult cat fleas, after 48 h
Procedure: For the coating of the test tubes, 9 mg of active ingredient are first dissolved in 1 ml of acetone p.a. and then diluted to the desired concentration with acetone p.a. 250 μl of the solution are distributed homogeneously on the inner walls and base of a 25 ml test tube by turning and rocking on an orbital shaker (rocking rotation at 30 rpm for 2 h). With 900 ppm active ingredient solution and internal surface area 44.7 cm^2, given homogeneous distribution, an area-based dose of 5 μg/cm^2 is achieved.
After the solvent has evaporated off, the tubes are populated with 5-10 adult cat fleas (Ctenocephalides felis), sealed with a perforated plastic lid and incubated in a horizontal position at room temperature and ambient humidity. After 48 h, efficacy is determined. To this end, the test tubes are stood upright and the fleas are knocked to the base of the tube. Fleas which remain motionless at the base or move in an uncoordinated manner are considered to be dead or moribund.
100% efficacy means that all the fleas were dead or moribund. 0% efficacy means that no fleas were harmed.

[14] = test system: Anopheles funestus strain FUMOZ-R; experiment: Anopheles test (ANPHFU surface treatment); type: in vivo; conditions: 20 mg/m^2, glazed tile, exposure 30 minutes, 24 hours after contact
Procedure: Solvent: acetone+2000 ppm rapeseed oil methyl ester (RME)
To produce an appropriate active ingredient formulation, the active ingredient is dissolved in the solvent (2 mg/ml). The active ingredient formulation is pipetted onto a glazed tile and, after it has dried off, adult mosquitoes of the species Anopheles funestus strain FUMOZ-R (Hunt et al., Med Vet Entomol. 2005 September; 19(3):271-5) are placed onto the treated tile. The exposure time is 30 minutes.
24 hours after contact with the treated surface, mortality in % is determined 100% means that all mosquitoes have been killed; 0% means that none of the mosquitoes have been killed.

SMILES	efficacy (caterpillars killed) ([1]; 100 g/ha)	efficacy (beetle larvae killed) ([2]; 100 g/ha)	efficacy (kill in %) [3]	logP [4]	efficacy (kill in %) [5]	efficacy (no fertile eggs laid) [6]	efficacy (kill in %) [7]	efficacy (caterpillars killed) ([1]; 500 g/ha)	efficacy (aphids killed) [8]	efficacy (beetle larvae killed) ([2]; 500 g/ha)	efficacy (spider mites killed) ([9]; 500 g/ha)	efficacy (kill in %) [10]	efficacy (no fertile eggs laid) [11]	efficacy (spider mites killed) ([9]; 100 g/ha)	efficacy (dead or moribund) [12]	efficacy (dead or moribund) [13]	efficacy (mortality in %) [14]
Cc1cc(C(F)(C(F)(F)F)C(F)(F)F)cc(C)c1-c1cn(-c2ccc(Cl)c(C(=O)NCC(F)(F)F)c2)nn1 [I-T48-5]	100%	100%	100%	4.5	100%	100%	100%										
Cc1cc(C(F)(C(F)(F)F)C(F)(F)F)cc(C)c1-c1cn(-c2cnc(Cl)c(C(=O)NC3(C#N)CC3)c2)nn1 [I-T48-8]						100%	100%	100%	100%	100%	100%	100%	100%				
Cc1cc(C(F)(C(F)(F)F)C(F)(F)F)cc(C)c1-c1cn(-c2ccc(Cl)c(C(=O)NC3CSC3)c2)nn1 [I-T48-6]	100%	100%	100%	4.5	100%	100%	100%							100%			
Cc1cc(C(F)(C(F)(F)F)C(F)(F)F)cc(C)c1-c1cn(-c2cnc(Cl)c(C(=O)NC3CC3)c2)nn1 [I-T48-7]			100%		100%	100%	100%	100%	100%	100%	100%	100%	100%		100%		
O=C(NC1CC1)c1cc(-n2cc(-c3c(Cl)cc(C(F)(C(F)(F)F)C(F)(F)F)cc3Cl)nn2)ccc1Cl [I-T48-3]	100%	100%	100%	4.3	100%	100%	100%					90%	90%	100%	100%	100%	
N#CC1(NC(=O)c2cc(-n3cc(-c4c(Cl)cc(C(F)(C(F)(F)F)C(F)(F)F)cc4Cl)nn3)ccc2Cl)CC1 [I-T48-4]	100%	100%	100%	4.2	100%	100%	100%							100%	100%	100%	90-100%
